In US8143254B2, “Methods for modulating ion channels” (Cornell Research Foundation, Inc., priority 2005, dated 2012):
Read-outs that look alike come from different tables or passages of the source.

Target: T1, Kv2.1 (Rattus norvegicus, UniProt P15387)
T1 construct: expressed in transfected cells; host or cells: Xenopus laevis oocytes (cRNA injection, pGA1 vector)
Experiment: Two-electrode voltage clamp (TEVC) of Xenopus oocytes expressing Kv2.1, bath-applied compound
Format: cell-based
Conditions: for effect on Kv2.1 currents: 1 mM, bath applied; for slope of dose response curve: Kv2.1, Example 8; for relative sensitivity of Kv2.1 and Kv3.4: Kv2.1 versus Kv3.4; for mean inhibition at 0 mV relative to +60 mV: Kv2.1, voltage dependence of block
Text: The ion channel subunit genes are in expression vectors that facilitate in vitro transcription of channel cRNA using the Ambion mMessage mMachine in vitro transcription kit. cDNA constructs are column-purified, linearized with the appropriate restriction enzyme that cuts a single site following the polyA tail, then purified by precipitation and transcribed in vitro using a promoter, such as T7, T3 and SP6. Transcribed cRNA is purified by precipitation and resuspended in RNAse-free water ready for injection. Each transcription can provide enough cRNA for several months of experiments.
Stage V-VI Xenopus oocytes are separated into small groups using forceps, defolliculated by agitation in Ca^2+-free Ringer solution containing collagenase for one hour, washed, then stored at 15° C. in full Ringers solution before injection. cRNA sufficient to give 1-10 μA of current at physiological voltages for each channel type is injected into Xenopus oocytes (selected by appearance for overall health and uniformity of color) using a Sutter manual injector (typically 0.1-5 ng cRNA in a volume of 25-50 nl). The oocytes are then stored for 1-3 days at 15° C. before TEVC recording. Beta subunit cRNA is co-injected as appropriate, typically 2 ng per oocyte.
Whole cell oocyte experiments are performed using a Warner OC-725C amplifier and pClamp9 software with oocytes bathed in a small-volume Warner oocyte bath and viewed with a Fisher dissection microscope. Bath solution for whole cell oocyte recordings, e.g., for potassium channel analysis, is generally (in mM): 96 NaCl, 4 KCl, 1 MgCl2, 0.3 CaCl2, 10 HEPES (Ph 7.4); whole-cell oocyte TEVC pipettes are filled with 3 M KCl. Oocyte patches are studies using an Axon Instruments small-volume bath, viewed with an Olympus IX50 inverted microscope, and recordings made using an Axon Multiclamp 700 A Amplifier and pCLAMP9 software (Axon Instruments). Extracellular solution, e.g., for potassium channel analysis, is generally (in mM): 135 NaCl, 5 KCl, 1.2 MgCl2, 5 HEPES, 2.5 CaCl2, 10 D-glucose (Ph 7.4). Intracellular solution, e.g., for potassium channel analysis, is generally (in mM): 10 NaCl, 117 KCl, 2 MgCl2, 11 HEPES, 11 EGTA, ICaCl2 (Ph 7.2). Patch pipettes are approximately 3-5 MΩ resistance when filled with recording solution.
Quantitative aspects of ion action on ion channels are compared using standard pulse protocols. Pulse times and voltages will vary according to which currents are being studied. […] Drug inhibition constants are calculated after generating a dose response curve by fitting with a logistic dose-response function (see equation (i) below). Typically, 5-20 cells per group are recorded from for heterologous expression experiments. Values are to be stated as mean±SEM with statistical significance set at p<0.05 (unpaired students t-test, ANOVA or the Mann-Whitney Rank Sum Test as appropriate).
Injected oocytes, bathed in bath solution containing 4 mM KCl, unless otherwise stated, are impaled with current and voltage electrodes and clamped at −80 mV holding potential using a Warner OC-725C amplifier. […] Drug concentrations are chosen to ensure inhibition values between 0 and 90-100% with at least 3 values within the linear portion of the curve so that the inhibition constant (Ki) can be calculated accurately by fitting with a logistic dose-response function (formula (i)) using the Origin 6.1 graph package.
Kv2.1 mutants were constructed using the QuickChange Multi Site-Directed Mutagenesis Kit (Stratagene, La Jolla, Calif.). […] For oocyte expression, Kv3.4 was in pBF1, Kv4.2 was in pRAT. cRNA transcripts were produced from SacII-linearized (Kv2.1), Mlullinearized (Kv3.4) and Not1-linearized (Kv4.2) DNA templates using the T3 (Kv2.1), SP6 (Kv3.4) and T7 (Kv4.2) mMessage mMachine kits (Ambion, Austin, Tex.). cRNA was quantified by spectrophotometry and its size integrity verified by gel electophoresis.

[1] = IC50, Kv2.1, logistic dose response fit, Example 8

T1 sequence (P15387 whole entry): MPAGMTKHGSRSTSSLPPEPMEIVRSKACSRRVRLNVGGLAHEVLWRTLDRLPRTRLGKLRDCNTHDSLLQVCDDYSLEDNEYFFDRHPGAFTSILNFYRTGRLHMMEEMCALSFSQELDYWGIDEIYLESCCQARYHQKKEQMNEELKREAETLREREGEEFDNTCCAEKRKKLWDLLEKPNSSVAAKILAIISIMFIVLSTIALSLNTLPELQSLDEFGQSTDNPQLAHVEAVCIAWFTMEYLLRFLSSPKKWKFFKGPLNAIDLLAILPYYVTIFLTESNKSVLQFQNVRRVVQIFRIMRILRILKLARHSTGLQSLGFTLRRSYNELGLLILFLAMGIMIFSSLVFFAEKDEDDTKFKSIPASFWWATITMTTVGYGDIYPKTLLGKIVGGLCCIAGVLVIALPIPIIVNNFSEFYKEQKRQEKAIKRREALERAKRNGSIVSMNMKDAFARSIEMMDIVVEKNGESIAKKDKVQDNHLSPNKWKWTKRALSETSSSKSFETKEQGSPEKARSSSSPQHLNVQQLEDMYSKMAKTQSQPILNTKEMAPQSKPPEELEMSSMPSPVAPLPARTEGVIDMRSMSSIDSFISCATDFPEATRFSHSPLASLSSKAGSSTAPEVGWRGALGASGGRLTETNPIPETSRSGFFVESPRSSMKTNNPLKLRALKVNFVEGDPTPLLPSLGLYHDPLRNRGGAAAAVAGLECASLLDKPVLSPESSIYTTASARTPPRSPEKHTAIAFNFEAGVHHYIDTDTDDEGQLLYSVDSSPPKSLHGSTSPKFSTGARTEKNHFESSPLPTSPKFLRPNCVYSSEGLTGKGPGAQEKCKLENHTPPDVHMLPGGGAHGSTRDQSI

Row | Structure (SMILES) | effect on Kv2.1 currents | slope of dose response curve | relative sensitivity of Kv2.1 and Kv3.4 | mean inhibition at 0 mV relative to +60 mV [fold] | p (Hill slope) of logistic dose-response fit (Kv2.1 alone, Example 4) | IC50 [1] [µM] | also measured
1 | c1cc(C[N+]23CCN(CC2)CC3)ccc1C[N+]12CCN(CC1)CC2 [JC638.2α, α,α′-[bis(4-aza-1-azoniabicyclo[2.2.2]octanyl)]p-xylene] | significant inhibition | 1.4±0.1 | significantly differentiate between Kv2.1 and Kv3.4 |  |  |  | IC50 (Kv2.1, logistic dose response fit, Example 8, read-out: IC50): 186 ± 17 µM; voltage dependence of block (inhibition attenuated at more positive voltages): voltage dependent block
2 | CCCCCCCCCCCC[N+]12CCN(CC1)CC2 [JE188, 1-aza-4-azonia-4-dodecylbicyclo[2.2.2]octane] |  | 1.4±0.1 |  | 3 | 1.4±0.1 |  | inhibition of Kv2.1 (50 μM): significantly inhibited; inhibition of Kv2.1 (250 μM): almost complete inhibition; IC50 (Kv2.1 alone, external bath application, Example 4, read-out: x0 of logistic dose-response fit of current inhibition (converted)): 23.3 ± 2.1 µM; sensitivity of Kv2.1 currents to compound relative to tetraethylammonium (externally applied): 500 fold
3 | CCCCCCCCCCCCCCCC[N+]12CCN(CC1)CC2 [TA279, 1-aza-4-azonia-4-hexadecylbicyclo[2.2.2]octane] |  | 0.6±0.4 |  | 3 | 0.8±0.1 | 1.9 ± 3.6 | sensitivity of Kv2.1 currents to TA279 relative to JE188: 20 fold; inhibition of Kv2.1 (1 μM): inhibiting; inhibition of Kv2.1 (5 mM): almost complete inhibition; time for washout (compared with TEA): several minutes; IC50 (x0 of logistic dose-response fit of current inhibition, Kv2.1 alone, external bath application, Example 4): 1 ± 0.8 µM
4 | C(CC[N+]12CCN(CC1)CC2)C[N+]12CCN(CC1)CC2 [TG26] | less effective than TG27 |  | Kv2.1 was more sensitive than Kv3.4 |  |  |  | 
5 | C(CCCC[N+]12CCN(CC1)CC2)CCC[N+]12CCN(CC1)CC2 [TG27, 1,8-[bis(4-aza-1-azoniabicyclo[2.2.2]octanyl)]octane] |  | 2.1±0.8 | Kv2.1 was more sensitive than Kv3.4 |  |  | 270 ± 66.4 | 
